Measurements reported in paper PMC4747383, “Design of a peptidic inhibitor that targets the dimer interface of a prototypic galectin” (Oncotarget, 2015).
“Also recorded” adds a separate entry of the source. No end group written: not given here.

Tests used:
recombinant hGal-2 = experiment: Disruption of hGal-2 dimers, native gel electrophoresis/Western blot; format: biochemical, human; conditions: recombinant hGal-2, 20 mM potassium phosphate pH 7.1, films overexposed, three independent experiments
From the text: To measure the ability of the peptides to disrupt the formation of hGal-7 dimers, we used mild denaturing native gel electrophoresis, a commonly used approach to visualize monomer-dimer equilibrium (Fig. 1A and Supplementary Fig. S1). […] This specificity at disrupting hGal-7 dimer formation is provided by distinct three-dimensional arrangements between otherwise very similar galectin homologues. Indeed, while all monomeric galectins reveal identical topologies, dimer formation in hGal-7 proceeds through a “back-to-back” topology of the monomers while other galectins, including hGal-1 and hGal-2, adopt a “side-by-side” structural arrangement (Fig. 1B). This structural organization provides additional means to specifically target and disrupt galectin function.
Incubation of the recombinant B. hGal-1 and C. hGal-2 with hGal-7(129–135) was performed in the same potassium phosphate buffer. The effect of hGal-7(129–135) on the monomeric and dimeric forms of hGal-7/hGal-1/hGal-2 was assessed by Western blotting in native conditions with respective antibodies. The hGal-1/hGal-2 films were overexposed. PACAP28–38 was the control peptide used in order to ensure the specificity of hGal-7(129–135). […]
Human Gal-7 cDNA was cloned into pET-22b(+) using NdeI and HindIII restriction enzymes. […] Purified fractions were analyzed by SDS-PAGE. […]

Jurkat T cells [1] = experiment: hGal-7-induced apoptosis of Jurkat T cells, Annexin V/PI flow cytometry; format: cell-based; conditions: hGal-7 and peptide pre-incubated 1 h at 4°C, cells 4 h at 37°C, serum free RPMI 1640, three independent experiments
Protocol: Apoptosis was measured by Western blot analysis of PARP-1 cleavage. The PACAP28–38 was used as a control. β-actin was used as a loading control. B. Flow cytometric analysis of Jurkat T cells with stained Annexin V (FL1) and propidium iodide-PI (FL3) following binding of recombinant hGal-7 with or without hGal-7(129–135). Cells in the lower right quadrant are representative of annexin V-positive/PI-negative, or early apoptotic cells. Cells in the upper right quadrant indicate annexin V-positive/PI-positive, or late apoptotic cells. C. Histogram showing the percentages of annexin V-positive Jurkat T cells obtained by adding the percentages of cells found in the lower and upper right quadrants. Results are representative of three independent experiments. Error bars represent standard deviation.
(§1) Apoptosis was measured by flow cytometry using FITC-labeled Annexin V (Biolegend, San Diego, CA, USA) and propidium iodide (PI). Briefly, the corresponding dilutions of recombinant hGal-7 and hGal-7(129–135) peptides were pre-incubated for 1 h at 4°C in serum free RPMI 1640 medium. 2.5 × 10^5 Jurkat cells were then harvested in the same medium and incubated with their corresponding dilutions at 37°C for 4 h. Cells were washed once in PBS and once in binding buffer (0.01 M HEPES, 0.14 M NaCl, 2.5 mM CaCl2, pH 7.4). Cells were then incubated for 15 min with Annexin V in the dark at room temperature. A total of 400 μL of binding buffer containing 0.25 μg/mL propidium iodide was added to the cells before analysis by flow cytometry.

Jurkat T cells [2] = experiment: Apoptosis/toxicity of peptide alone on Jurkat T cells; format: cell-based; conditions: for apoptosis induced by peptide alone in Jurkat T cells: 4 h at 37°C, Annexin V/PI two-color flow cytometry, three independent experiments
Protocol: as §1
Supplementary Figure S4: Inability of the control peptide (PACAP) to induce apoptosis on Jurkat T cells. Jurkat T cells wee incubated 4 h at 37°C with increasing concentrations of the control peptide PACAP before two-color flow cytometric analysis. On the left histograms, cells in the lower right quadrant are representative of annexin V-positive/PI-negative, or early apoptotic cells. Cells in the upper right quadrant indicate annexin V-positive/PI-positive, or late apoptotic cells. The right histograms show the percentages of annexin V-positive Jurkat T cells obtained by adding the percentages of cells found in the lower and upper right quadrants. Results are representative of three independent experiments. Error bars represent standard deviation.
(also on this page, place not known: www.impactjournals.com/oncotarget/ Oncotarget, Materials 2015 Supplementary) […]

[3] = design: method as in PMID 22922050; conditions: ref [51]; cited from earlier work

| Substance | disruption of hGal-2 homodimers (recombinant hGal-2) | hGal-7-induced apoptosis of Jurkat T cells (Annexin V/PI) (Jurkat T cells [1]) | hGal-7-induced apoptosis of Jurkat T cells (Annexin V/PI) (Jurkat T cells [1]; listed as hGal-7 (129–135)) | apoptosis induced by peptide alone in Jurkat T cells (Jurkat T cells [2]) | toxicity of peptide alone on Jurkat T cells (Jurkat T cells [2]) | apoptosis induced by peptide alone in Jurkat T cells (Jurkat T cells [2]; listed as PACAP) | binding of cell surface phospholipids [3] |
| --- | --- | --- | --- | --- | --- | --- | --- |
| H-LDSVRIP-NH2 [hGal-7(129–135), peptide corresponding to hGal-7 segment between residues 129–135] | No such effect was observed | This effect on apoptosis was confirmed by flow cytomtery | Apoptotic levels of Jurkat T cells induced by hGal-7 were decreased | did not induce apoptosis in Jurkat T cells |  |  |  |
| PACAP(28–38): an inactive fragment of the human Pituitary Adenylate Cyclase-Activating Polypeptide (PACAP) (GKRYKQRVKNK-NH2; ends and bridges not checked; UniProt P18509 159-169, looked up, fragment) |  | a slight increase in apoptosis is observed |  | did not induce apoptosis in Jurkat T cells; also recorded: does not induce apoptosis | did not display any toxicity on Jurkat T cells alone; also recorded: minimal toxicity on the cell line | Inability | binds cell surface phospholipids |
